According to US8481789B2, “Method for producing natural 9-decen-2-one by bioconverting undecylenic acid using a mold, and use in the perfume and food flavoring fields” (priority 2008, dated 2013):

Tests used:
rabbits [1] = assay: Acute dermal irritation (OECD guideline No. 404, method B.4); assay type: in vivo, rabbit; conditions: 3 rabbits
Experimental: The molecule was tested on 3 rabbits according to the experimental protocol established by “the OECD guideline No. 404 dated Apr. 24, 2002” and the test “method B.4 of the Directive No. 2004/73/EC): Acute dermal irritation”.
It emerges therefrom that 9-decen-2-one is not irritant and that no hazard symbol or phrases are required for its use (according to the “EEC Directives 67/548/59 and 99/45”).

rabbits [2] = assay: Acute eye irritation (OECD guideline No. 405, method B.5); assay type: in vivo, rabbit; conditions: 3 rabbits
Experimental: Similarly, the molecule was tested on 3 rabbits according to the experimental protocol established by “the OECD guideline No. 405 dated Apr. 24, 2002” and the test “method B.5 of the Directive No. 2004/73/EC): Acute eye irritation”.
It also emerges therefrom that 9-decen-2-one is not irritant and that no hazard symbol or phrases are required for its use (according to the “EEC Directives 67/548/59 and 99/45”).

[3] = LD50 test (acute oral toxicity); conditions: in vivo

C=CCCCCCCC(C)=O [9-decen-2-one]
Acute dermal irritation (rabbits [1]): not irritant
Acute eye irritation (rabbits [2]): not irritant
LD50 [3]: 2500 mg/kg
